US10703800B2, “Cell culture medium” (La Jolla Biologics, Inc., priority 2016, dated 2020)

What was measured:
cell line producing mAb4 = test: Media supplementation with fatty acids, methyl esters, sterols, glycerides and isoprenoids, mAb4 production; assay type: cell-based; details: supplement in ethanol fed daily per Table 5 (5.0-20.0 μM, ethanol 0.09% v/v) vs control
Procedure: (§1) Monoclonal antibodies 1 (mAb1) and 4 (mAb4) were produced using two separate cell lines according to methods described in the previous Examples. Titer, percent of high molecular weight and low molecular weight species, acidic and basic charge variants, and glycosylation species profiles were assessed as in the previous Examples.
(§2) Fatty acids were dissolved in ethanol and fed daily according to Table 5 using two different process strategies for mAb1 and mAb4. The mAb1 process strategy was maintained at 37° C. then shifted to 31° C. during late exponential phase, with the pH being maintained at 7.0±0.2 throughout the culture. The mAb4 process strategy was maintained at 36.5° C. then shifted to 33° C. during production phase, with the pH being shifted from 7.0±0.1 to 6.8±0.1 in the late exponential phase. Both process strategies were maintained at 30% air saturation

CHO.DXB11 cells [1] = test: Media supplementation with fatty acids, methyl esters, sterols, glycerides and isoprenoids, mAb1 production; assay type: cell-based, Chinese hamster; details: supplement in ethanol fed daily per Table 5 (2.7-10.7 μM, ethanol 0.05% v/v) vs control
Procedure: as §1, §2

CHO.DXB11 derived clone = test: Sodium chloride supplementation, microscale bioreactors, mAb3; assay type: cell-based, Chinese hamster; details: sodium chloride 4.59 mM and 9.18 mM fed daily, 12 day fed-batch
Procedure: Monoclonal antibody 3 (mAb3) is a monoclonal antibody produced using recombinant DNA technology. The expression vector is fully synthetic with both heavy- and light-chain gene sequences regulated by strong constitutive promoters. Gene sequences were confirmed by DNA sequencing. The expression vector was linearized by restriction enzymes and stably transfected into CHO.DXB11 cells by electroporation. Gene amplification steps were performed with increasing concentrations of methotrexate. Single cell cloning was performed after gene amplification. Select single cell clones were expanded and cryopreserved. The cell line used was a CHO.DXB11 derived clone.
Sodium chloride was fed daily at 4.59 mM and 9.18 mM using two different process strategies. Process strategy 1 was maintained at 36.5° C. then shifted to 31° C. during production phase. Process strategy 2 was maintained at 36.5° C. then shifted to 31° C. during production phase then re-shifted back to 36.5° C. during late production phase. Both process strategies were maintained at 30% air saturation and a pH of 7.0±0.2. Other glycan species and HMW % and LMW % are not listed because no significant change in levels were observed from sodium chloride supplementation.

CHO.DXB11 cells [2] = test: Oleic acid in bench-scale bioreactors, baseline without fatty acids or ethanol, mAb 1; assay type: cell-based, Chinese hamster; details: oleic acid 40 μM + ethanol 0.057% v/v fed daily vs baseline without both, 14 day fed-batch
Source text: Feed media was supplemented with fatty acids to determine if fatty acids altered mAb properties. Feed media was fed daily in a fed-batch process using bench-scale (2 L working volume) bioreactors.

CHO.DXB11 cells [3] = test: Oleic acid in bench-scale bioreactors, baseline with ethanol, mAb 1; assay type: cell-based, Chinese hamster; details: oleic acid 40 μM fed daily vs baseline w/ethanol, 14 day fed-batch
Source text: Ethanol supplemented media was further supplemented with fatty acids to determine if fatty acids altered mAb properties. Feed media was fed daily in a fed-batch process using bench-scale (2 L working volume) bioreactors. […] Media used for baseline measurements contains ethanol but no fatty acids.

[4] = process strategies 1 and 2, mAb3

Molecule | Effect on acidic charge variants (cell line producing mAb4) | Effect on G0 glycan species (CHO.DXB11 cells [1]) | Effect on low molecular weight species (CHO.DXB11 cells [1]) | Effect on LMW species (cell line producing mAb4) | Effect on relative percentage of HMW species (cell line producing mAb4) | Effect on relative percentage of Man5 glycan species (cell line producing mAb4) | Effect on relative percentage of basic charge variants (cell line producing mAb4) | Effect on acidic charge variants (CHO.DXB11 cells [1]) | Effect on relative percentage of G0 glycan species (cell line producing mAb4) | Effect on G0F glycan species (CHO.DXB11 cells [1]) | further results
CCCCCCCCCCCCCCCCCC(=O)O [stearic acid] | decreased | Decreased | decreased |  |  |  |  |  |  |  | Effect on basic charge variants (CHO.DXB11 cells [1]): decreased
Cc1ccc(C(C)C)c(O)c1 [thymol] | decreased | Decreased | decreased | decreased | decreased | decreased | decreased | decreased |  |  | Effect on titer (CHO.DXB11 cells [1]): increased
[Cl-].[Na+] [sodium chloride] |  |  |  |  |  |  |  |  |  |  | Effect on HMW % (CHO.DXB11 derived clone; mAb3): did not change; Effect on LMW % (CHO.DXB11 derived clone; mAb3): did not change; Effect on G0F glycan species (CHO.DXB11 derived clone; [4]): decreased; Effect on G0 glycan species (CHO.DXB11 derived clone; [4]): increased; Effect on G1F glycan species (CHO.DXB11 derived clone; [4]): increased; Effect on G2F glycan species (CHO.DXB11 derived clone; [4]): increased; Effect on Man5 glycan species (CHO.DXB11 derived clone; [4]): increased; Effect on acidic charge variants (CHO.DXB11 derived clone; [4]): increased; Effect on basic charge variants (CHO.DXB11 derived clone; [4]): increased; Effect on monoclonal antibody titer (CHO.DXB11 derived clone; [4]): decreased; Effect on monoclonal antibody titer (CHO.DXB11 derived clone; process strategies 1 and 2, mAb3, listed as Sodium chloride): reduced
CCCCCCCC(=O)OCC(O)CO (racemic) [1-octanoyl-rac-glycerol] | decreased |  | decreased |  | decreased | decreased | decreased | decreased | decreased | decreased | Effect on relative percentage of G0F glycan species (cell line producing mAb4): decreased; Effect on titer (CHO.DXB11 cells [1]): increased
CCCCC/C=C\C/C=C\CCCCCCCC(=O)O [linoleic acid] | decreased |  | decreased | decreased |  | decreased |  | decreased | decreased |  | Effect on titer (CHO.DXB11 cells [1]): increased
CCCCCCCCCCCCCC(=O)O [myristic acid] | decreased | Decreased |  |  | decreased | decreased | decreased | decreased | decreased | decreased | 
CCCCCCCC/C=C\CCCCCCCC(=O)O [oleic acid] | decreased | Decreased |  |  |  | decreased |  | decreased | decreased | decreased | Effect on G0F glycan species (CHO.DXB11 cells [2]): decreased; Effect on G0 glycan species (CHO.DXB11 cells [2]): decreased; Effect on G1F glycan species (CHO.DXB11 cells [2]): increased; Effect on G2F glycan species (CHO.DXB11 cells [2]): increased; Effect on Man5 glycan species (CHO.DXB11 cells [2]): decreased; Effect on acidic charge variants (CHO.DXB11 cells [2]): decreased; Effect on high molecular weight species (CHO.DXB11 cells [2]): decreased; Effect on monoclonal antibody titer (CHO.DXB11 cells [2]): increased; Effect on G0F glycan species (CHO.DXB11 cells [3]): increased; Effect on G0 glycan species (CHO.DXB11 cells [3]): decreased; Effect on G1F glycan species (CHO.DXB11 cells [3]): decreased; Effect on G2F glycan species (CHO.DXB11 cells [3]): decreased; Effect on Man5 glycan species (CHO.DXB11 cells [3]): decreased; Effect on acidic charge variants (CHO.DXB11 cells [3]): decreased; Effect on antibody titer (CHO.DXB11 cells [3]): decreased; Effect on basic charge variants (CHO.DXB11 cells [3]): increased; Effect on high molecular weight species (CHO.DXB11 cells [3]): increased; Effect on low molecular weight species (CHO.DXB11 cells [3]): increased
CC(C)CCC[C@@H](C)[C@H]1CC[C@H]2[C@@H]3CC=C4C[C@@H](O)CC[C@]4(C)[C@H]3CC[C@]12C [cholesterol] |  | Decreased |  |  |  | decreased | decreased |  | decreased |  | Effect on basic charge variants (CHO.DXB11 cells [1]): decreased
CCCCCCCCCCCCCCCC(=O)O [palmitic acid] | decreased | Decreased | decreased | decreased |  |  |  | decreased |  |  | Effect on basic charge variants (CHO.DXB11 cells [1]): decreased
cholesteryl acetate | decreased | Decreased |  | decreased | decreased | decreased | decreased |  | decreased | decreased | Effect on Man5 glycan species (CHO.DXB11 cells [1]): Decreased
CCCCCCCC(=O)OC [methyl octanoate] |  | Decreased |  |  | decreased | decreased | decreased | decreased | decreased | decreased | 
